# In ChEMBL document CHEMBL1148493, “A combination of docking/dynamics simulations and pharmacophoric modeling to discover new dual c-Src/Abl kinase inhibitors” (J Med Chem, 2006):
# Columns and labels:
# [1] = molecular target: Tyrosine-protein kinase ABL1 (Homo sapiens) (UniProt P00519)
# Description: Binding affinity to human recombinant Abl
# [2] = molecular target: Proto-oncogene tyrosine-protein kinase Src (Homo sapiens, UniProt P12931); experiment: Binding affinity to human recombinant Src
# Proto-oncogene tyrosine-protein kinase Src, sequence (P12931 2-536 limits assumed): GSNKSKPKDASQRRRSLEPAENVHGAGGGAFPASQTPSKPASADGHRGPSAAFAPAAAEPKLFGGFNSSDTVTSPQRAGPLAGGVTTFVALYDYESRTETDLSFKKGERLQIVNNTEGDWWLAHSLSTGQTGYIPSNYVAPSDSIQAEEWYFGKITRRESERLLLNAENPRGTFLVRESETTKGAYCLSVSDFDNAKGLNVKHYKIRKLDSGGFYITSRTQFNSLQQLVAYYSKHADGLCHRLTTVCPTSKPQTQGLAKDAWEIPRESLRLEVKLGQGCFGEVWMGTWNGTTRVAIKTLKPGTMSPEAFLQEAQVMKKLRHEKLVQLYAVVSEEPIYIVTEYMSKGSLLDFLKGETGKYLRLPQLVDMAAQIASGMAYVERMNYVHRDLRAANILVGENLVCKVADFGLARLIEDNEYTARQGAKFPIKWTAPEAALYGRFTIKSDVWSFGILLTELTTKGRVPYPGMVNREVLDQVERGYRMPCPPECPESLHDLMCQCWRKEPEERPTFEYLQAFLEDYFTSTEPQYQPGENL
# Tyrosine-protein kinase ABL1 (Homo sapiens), sequence (P00519 whole entry): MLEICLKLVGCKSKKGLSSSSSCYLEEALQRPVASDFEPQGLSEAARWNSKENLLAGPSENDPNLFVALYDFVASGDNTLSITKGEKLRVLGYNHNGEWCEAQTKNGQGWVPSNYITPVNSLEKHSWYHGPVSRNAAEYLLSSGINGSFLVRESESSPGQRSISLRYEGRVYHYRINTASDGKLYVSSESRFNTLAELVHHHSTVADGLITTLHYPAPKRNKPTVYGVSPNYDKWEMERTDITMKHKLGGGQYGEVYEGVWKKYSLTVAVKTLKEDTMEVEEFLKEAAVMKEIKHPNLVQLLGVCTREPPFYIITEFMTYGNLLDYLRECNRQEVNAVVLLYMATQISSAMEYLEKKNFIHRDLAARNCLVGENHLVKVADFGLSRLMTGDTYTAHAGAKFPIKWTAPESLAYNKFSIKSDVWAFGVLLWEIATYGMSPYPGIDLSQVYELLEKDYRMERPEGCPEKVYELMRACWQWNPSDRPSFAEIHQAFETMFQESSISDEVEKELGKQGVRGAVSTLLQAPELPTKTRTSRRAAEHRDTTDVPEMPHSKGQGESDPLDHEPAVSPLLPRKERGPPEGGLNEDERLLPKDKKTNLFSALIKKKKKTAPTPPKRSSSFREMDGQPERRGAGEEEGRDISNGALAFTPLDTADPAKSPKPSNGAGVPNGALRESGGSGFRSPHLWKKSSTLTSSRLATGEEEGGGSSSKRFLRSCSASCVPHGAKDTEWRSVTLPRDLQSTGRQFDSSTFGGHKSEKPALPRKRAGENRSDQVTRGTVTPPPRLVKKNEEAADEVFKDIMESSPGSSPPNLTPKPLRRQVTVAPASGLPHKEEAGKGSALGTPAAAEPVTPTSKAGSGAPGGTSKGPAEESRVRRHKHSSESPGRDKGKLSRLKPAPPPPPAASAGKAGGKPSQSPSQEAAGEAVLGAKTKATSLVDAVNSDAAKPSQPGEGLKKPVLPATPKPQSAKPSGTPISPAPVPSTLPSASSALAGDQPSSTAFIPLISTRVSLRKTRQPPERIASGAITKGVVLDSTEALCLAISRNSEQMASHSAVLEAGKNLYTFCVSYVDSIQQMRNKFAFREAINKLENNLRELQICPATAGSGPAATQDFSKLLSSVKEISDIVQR
SMILES,ID50 [1] [µM],ID50 [2] [µM],Ki [2] [µM]
O=C1NN(c2ccccc2)C(=O)/C1=C\c1ccccc1OCc1ccccc1,> 2000,–,–
Cc1ccc(-c2cnc(NC(=O)c3ccc(Br)cc3)s2)cc1,> 2000,> 2000,–
O=C1NN(c2ccc(I)cc2)C(=O)/C1=C\c1ccc(N2CCOCC2)cc1,–,> 2000,–
CCN(CC)c1ccc(/C=C2/C(=O)NN(c3ccc(I)cc3)C2=O)c(O)c1,> 2000,–,–

# Now from value to compound:
ID50 [1] [µM],ID50 [2] [µM],Ki [2] [µM],SMILES
–,> 2000,–,O=C(Nc1ccccc1)Nc1nnc(Cc2ccccc2)s1
> 2000,–,–,COc1ccc(C(=O)Nc2nnc(Cc3c[nH]c4ccccc34)s2)cc1
> 2000,–,2.9,O=C(Nc1nnc(CCc2ccccc2)s1)c1ccccc1
> 2000,–,–,O=C(Nc1nnc(CCc2ccccc2)s1)c1ccc(Cl)cc1Cl
